Source: patent US8309718B2, “4-pyrazolyl-N-arylpyrimidin-2-amines and 4-pyrazolyl-N-heteroarylpyrimidin-2-amines as janus kinase inhibitors” (Incyte Corporation, priority 2007, dated 2012)

biological target: T1, human JAK2 (Homo sapiens, UniProt O60674); assay: In vitro JAK kinase assay (HTRF, phosphorylation of biotinylated peptide); assay type: biochemical; conditions: catalytic domain a.a. 828-1132, 30 μM ATP, 500 nM peptide, room temperature 1 hr; read-out: JAK-2 IC50
T1 construct: JAK2 (a.a. 828-1132); His tag (N); made in house; host or cells: insect cells (baculovirus)
T1 sequence (O60674 828-1132): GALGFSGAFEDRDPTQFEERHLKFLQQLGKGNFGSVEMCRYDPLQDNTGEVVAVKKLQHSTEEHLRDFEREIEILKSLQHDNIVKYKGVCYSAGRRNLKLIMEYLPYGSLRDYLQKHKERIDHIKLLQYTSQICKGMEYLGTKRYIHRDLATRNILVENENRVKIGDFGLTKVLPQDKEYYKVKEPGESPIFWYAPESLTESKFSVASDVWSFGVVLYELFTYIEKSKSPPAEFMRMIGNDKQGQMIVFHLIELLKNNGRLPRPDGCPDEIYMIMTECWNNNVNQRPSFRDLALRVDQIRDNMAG
Protocol: Compounds herein were tested for inhibitory activity of JAK targets according to the following in vitro assay described in Park et al, Analytical Biochemistry 1999, 269, 94-104. The catalytic domains of human JAK1 (a.a. 837-1142), JAK2 (a.a. 828-1132) and JAK3 (a.a. 781-1124) with an N-terminal His tag were expressed using baculovirus in insect cells and purified. The catalytic activity of JAK1, JAK2 or JAK3 was assayed by measuring the phosphorylation of a biotinylated peptide. The phosphorylated peptide was detected by homogenous time resolved fluorescence (HTRF). IC50s of compounds were measured for each kinase in the reactions that contain the enzyme, ATP and 500 nM peptide in 50 mM Tris (pH 7.8) buffer with 100 mM NaCl, 5 mM DTT, and 0.1 mg/mL (0.01%) BSA. The ATP concentration in the reactions was 90 μM for JAK1, 30 μM for Jak2 and 3 μM for JAK3. Reactions were carried out at room temperature for 1 hr and then stopped with 20 μL 45 mM EDTA, 300 nM SA-APC, 6 nM Eu-Py20 in assay buffer (Perkin Elmer, Boston, Mass.). Binding to the Europium labeled antibody took place for 40 minutes and HTRF signal was measured on a Fusion plate reader (Perkin Elmer, Boston, Mass.). Certain of the above compounds were tested according to this assay.

Row | SMILES | IC50
1 | N#CCC(C1CCN(c2ncc(F)cn2)CC1)n1cc(-c2ccnc(Nc3ccc(N4CCOCC4)cc3)n2)cn1 (racemic) [Example 23, 3-(1-(5-fluoropyrimidin-2-yl)piperidin-4-yl)-3-(4-(2-(4-morpholinophenylamino)pyrimidin-4-yl)-1H-pyrazol-1-yl)propanenitrile] | < 100 nM
2 | CS(=O)(=O)N1CCC(C(CC#N)n2cc(-c3ccnc(Nc4ccc(N5CCOCC5)cc4)n3)cn2)CC1 (racemic) [Example 24, 3-(1-(methylsulfonyl)piperidin-4-yl)-3-(4-(2-(4-morpholinophenylamino)pyrimidin-4-yl)-1H-pyrazol-1-yl)propanenitrile] | < 100 nM
3 | N#CCC(C1CCN(S(=O)(=O)c2ccccc2)CC1)n1cc(-c2ccnc(Nc3ccc(N4CCOCC4)cc3)n2)cn1 (racemic) [Example 25, 3-(4-(2-(4-morpholinophenylamino)pyrimidin-4-yl)-1H-pyrazol-1-yl)-3-(1-(phenylsulfonyl)piperidin-4-yl)propanenitrile] | < 100 nM
4 | CC(=O)N1CCC(C(CC#N)n2cc(-c3ccnc(Nc4ccc(N5CCOCC5)cc4)n3)cn2)CC1 (racemic) [Example 26, 3-(1-acetylpiperidin-4-yl)-3-(4-(2-(4-morpholinophenylamino)pyrimidin-4-yl)-1H-pyrazol-1-yl)propanenitrile] | < 100 nM
5 | N#CCC(C1CCN(C(=O)c2ccccc2)CC1)n1cc(-c2ccnc(Nc3ccc(N4CCOCC4)cc3)n2)cn1 (racemic) [Example 27, 3-(1-benzoylpiperidin-4-yl)-3-(4-(2-(4-morpholinophenylamino)pyrimidin-4-yl)-1H-pyrazol-1-yl)propanenitrile] | < 100 nM
6 | N#CCC(C1CCCC1)n1cc(-c2ccnc(Nc3ccc(C(N)=O)cc3)n2)cn1 (racemic) [Example 33, 4-(4-(1-(2-cyano-1-cyclopentylethyl)-1H-pyrazol-4-yl)pyrimidin-2-ylamino)benzamide] | < 100 nM
7 | N#CCC(C1CCCC1)n1cc(-c2ccnc(Nc3ccc(-n4cccn4)cc3)n2)cn1 (racemic) [Example 34, 3-(4-(2-(4-(1H-pyrazol-1-yl)phenylamino)pyrimidin-4-yl)-1H-pyrazol-1-yl)-3-cyclopentylpropanenitrile] | < 100 nM
8 | N#CCC(C1CCCC1)n1cc(-c2ccnc(Nc3ccc(N4CCOCC4)cc3)n2)cn1 (racemic) [Example 35, 3-cyclopentyl-3-(4-(2-(4-morpholinophenylamino)pyrimidin-4-yl)-1H-pyrazol-1-yl)propanenitrile] | < 100 nM
9 | N#CCC(C1CCCC1)n1cc(-c2ccnc(Nc3ccccc3)n2)cn1 (racemic) [Example 36, 3-cyclopentyl-3-(4-(2-(phenylamino)pyrimidin-4-yl)-1H-pyrazol-1-yl)propanenitrile] | < 100 nM
10 | N#CCC(C1CCCC1)n1cc(-c2ccnc(Nc3cccc(-c4cnco4)c3)n2)cn1 (racemic) [Example 37, 3-cyclopentyl-3-(4-(2-(3-(oxazol-5-yl)phenylamino)pyrimidin-4-yl)-1H-pyrazol-1-yl)propanenitrile] | < 100 nM
11 | COc1ccc(Nc2nccc(-c3cnn(C(CC#N)C4CCCC4)c3)n2)cc1 (racemic) [Example 38, 3-cyclopentyl-3-(4-(2-(4-methoxyphenylamino)pyrimidin-4-yl)-1H-pyrazol-1-yl)propanenitrile] | < 100 nM
12 | CC(=O)Nc1ccc(Nc2nccc(-c3cnn(C(CC#N)C4CCCC4)c3)n2)cc1 (racemic) [Example 39, N-(4-(4-(1-(2-cyano-1-cyclopentylethyl)-1H-pyrazol-4-yl)pyrimidin-2-ylamino)phenyl)acetamide] | < 100 nM
13 | CN(C)C(=O)c1ccc(Nc2nccc(-c3cnn(C(CC#N)C4CCCC4)c3)n2)cc1 (racemic) [Example 40, 4-(4-(1-(2-cyano-1-cyclopentylethyl)-1H-pyrazol-4-yl)pyrimidin-2-ylamino)-N,N-dimethylbenzamide] | < 100 nM
14 | N#CCC(C1CCCC1)n1cc(-c2ccnc(Nc3ccc(N4CCNCC4)cc3)n2)cn1 (racemic) [Example 41, 3-cyclopentyl-3-(4-(2-(4-(piperazin-1-yl)phenylamino)pyrimidin-4-yl)-1H-pyrazol-1-yl)propanenitrile] | < 100 nM
15 | CCS(=O)(=O)N1CCC(CC(CC#N)n2cc(-c3ccnc(Nc4ccc(N5CCOCC5)cc4)n3)cn2)CC1 (racemic) [Example 42, 4-(1-(ethylsulfonyl)piperidin-4-yl)-3-(4-(2-(4-morpholinophenylamino)pyrimidin-4-yl)-1H-pyrazol-1-yl)butanenitrile] | < 100 nM
16 | CCS(=O)(=O)N1CCC(CC(CC#N)n2cc(-c3ccnc(Nc4ccc(-n5cccn5)cc4)n3)cn2)CC1 (racemic) [Example 43, 3-(4-(2-(4-(1H-pyrazol-1-yl)phenylamino)pyrimidin-4-yl)-1H-pyrazol-1-yl)-4-(1-(ethylsulfonyl)piperidin-4-yl)butanenitrile] | < 100 nM
17 | CCS(=O)(=O)N1CCC(CC(CC#N)n2cc(-c3ccnc(Nc4ccccc4)n3)cn2)CC1 (racemic) [Example 44, 4-(1-(ethylsulfonyl)piperidin-4-yl)-3-(4-(2-(phenylamino)pyrimidin-4-yl)-1H-pyrazol-1-yl)butanenitrile] | < 100 nM
18 | CC(=O)Nc1ccc(Nc2nccc(-c3cnn(C(CC#N)CC4CCN(S(=O)(=O)c5ccn(C)n5)CC4)c3)n2)cc1 (racemic) [Example 45, N-(4-(4-(1-(1-cyano-3-(1-(1-methyl-1H-pyrazol-3-ylsulfonyl)piperidin-4-yl)propan-2-yl)-1H-pyrazol-4-yl)pyrimidin-2-ylamino)phenyl)acetamide] | < 100 nM
19 | CCS(=O)(=O)N1CCC(CC(CC#N)n2cc(-c3ccnc(Nc4ccc(C(=O)N(C)C)cc4)n3)cn2)CC1 (racemic) [Example 46, 4-(4-(1-(1-cyano-3-(1-(ethylsulfonyl)piperidin-4-yl)propan-2-yl)-1H-pyrazol-4-yl)pyrimidin-2-ylamino)-N,N-dimethylbenzamide] | < 100 nM
20 | Cn1ccc(S(=O)(=O)N2CCC(CC(CC#N)n3cc(-c4ccnc(Nc5ccc(C(N)=O)cc5)n4)cn3)CC2)n1 (racemic) [Example 47, 4-(4-(1-(1-cyano-3-(1-(1-methyl-1H-pyrazol-3-ylsulfonyl)piperidin-4-yl)propan-2-yl)-1H-pyrazol-4-yl)pyrimidin-2-ylamino)benzamide] | < 100 nM
21 | CCS(=O)(=O)N1CCC(CC(CC#N)n2cc(-c3nc(Nc4ccc(N5CCOCC5)cc4)ncc3C)cn2)CC1 (racemic) [Example 48, 4-(1-(ethylsulfonyl)piperidin-4-yl)-3-(4-(5-methyl-2-(4-morpholinophenylamino)pyrimidin-4-yl)-1H-pyrazol-1-yl)butanenitrile] | < 100 nM
22 | CCS(=O)(=O)N1CCC(CC(CC#N)n2cc(-c3nc(Nc4ccc(-n5cccn5)cc4)ncc3C)cn2)CC1 (racemic) [Example 49, 3-(4-(2-(4-(1H-pyrazol-1-yl)phenylamino)-5-methylpyrimidin-4-yl)-1H-pyrazol-1-yl)-4-(1-(ethylsulfonyl)piperidin-4-yl)butanenitrile] | < 100 nM
23 | CCS(=O)(=O)N1CCC(CC(CC#N)n2cc(-c3nc(Nc4ccccc4)ncc3C)cn2)CC1 (racemic) [Example 50, 4-(1-(ethylsulfonyl)piperidin-4-yl)-3-(4-(5-methyl-2-(phenylamino)pyrimidin-4-yl)-1H-pyrazol-1-yl)butanenitrile] | < 100 nM
24 | CC(=O)Nc1ccc(Nc2ncc(C)c(-c3cnn(C(CC#N)CC4CCN(S(=O)(=O)c5ccn(C)n5)CC4)c3)n2)cc1 (racemic) [Example 51, N-(4-(4-(1-(1-cyano-3-(1-(1-methyl-1H-pyrazol-3-ylsulfonyl)piperidin-4-yl)propan-2-yl)-1H-pyrazol-4-yl)-5-methylpyrimidin-2-ylamino)phenyl)acetamide] | < 100 nM
25 | CCS(=O)(=O)N1CCC(CC(CC#N)n2cc(-c3nc(Nc4ccc(C(=O)N(C)C)cc4)ncc3C)cn2)CC1 (racemic) [Example 52, 4-(4-(1-(1-cyano-3-(1-(ethylsulfonyl)piperidin-4-yl)propan-2-yl)-1H-pyrazol-4-yl)-5-methylpyrimidin-2-ylamino)-N,N-dimethylbenzamide] | < 100 nM
26 | Cc1cnc(Nc2ccc(C(N)=O)cc2)nc1-c1cnn(C(CC#N)CC2CCN(S(=O)(=O)c3ccn(C)n3)CC2)c1 (racemic) [Example 53, 4-(4-(1-(1-cyano-3-(1-(1-methyl-1H-pyrazol-3-ylsulfonyl)piperidin-4-yl)propan-2-yl)-1H-pyrazol-4-yl)-5-methylpyrimidin-2-ylamino)benzamide] | < 100 nM
27 | CS(=O)(=O)N1CCN(c2ccc(Nc3nccc(-c4cnn(C(CC#N)C5CCCC5)c4)n3)cc2)CC1 (racemic) [Example 54, 3-cyclopentyl-3-(4-(2-(4-(4-(methylsulfonyl)piperazin-1-yl)phenylamino)pyrimidin-4-yl)-1H-pyrazol-1-yl)propanenitrile] | < 100 nM
28 | Cn1ccc(S(=O)(=O)N2CCC(CC(CC#N)n3cc(-c4ccnc(Nc5ccc(N6CCOCC6)cc5)n4)cn3)CC2)n1 (racemic) [Example 55, 4-(1-(1-methyl-1H-pyrazol-3-ylsulfonyl)piperidin-4-yl)-3-(4-(2-(4-morpholinophenylamino)pyrimidin-4-yl)-1H-pyrazol-1-yl)butanenitrile] | < 100 nM
